Molecule `CCOC(=O)C1=C(COCCOCCN)NC(C)=C(C(=O)OC)C1c1cccc(Cl)c1Cl` (single isomer, unassigned; (-)) gave a melting point of 69 to 71 °C.
Then `CC=CCn1c(C)c(C)c2cnnc(SCc3c(F)cccc3Cl)c21`, with 95 to 117 °C; and `CC(=O)c1c(F)ccc(NC2OC(=O)CC(=O)O2)c1F`, with 82 to 84 °C.
Then `Cc1ccncc1-n1nc(C)c(CC(=O)OCC2CC2)c1-c1ccccc1`, with 87 °C.
`CC(=O)OCCOc1ncnc(NS(=O)(=O)c2ccc(C)cc2)c1CCc1ccccc1` came in with a melting point of 120 to 123 °C.
`CCS(=O)(=O)Nc1ccc2[nH]cc(C3CCN(C)CC3)c2c1`: the melting point is 176 to 178 °C.
The figure for `CC(=O)OC1CCC2(C)C(=CCC3C2CCC2(C)C(n4ccnn4)=CCC32)C1` (centres undefined) is 158 to 160 °C; for `COC(=O)CCCc1ccc(S(=O)(=O)Nc2ccccc2)cn1` it is 79 to 80 °C.
For `COc1nc(-c2ccc(Cl)cc2)nc(Cl)c1Cl`, the melting point lay within 157 to 159 °C.
Then `CCCn1cc(Cc2ccc(C(=O)OC)cc2OC)c2cc(CCCC(=O)O)ccc21`, with 106 to 109 °C; and `Cn1c2ccccc2c2cc(CN3CCOCC3)sc21`, with 102 to 106 °C.
The figure for `Nc1cc(-c2c(-c3ccc(F)cc3)ncn2CCCN2CCOCC2)ccn1` is 186 to 187 °C; for `O=S(=O)(NCCCOc1cccc2nccn12)c1ccccc1` it is 155 to 156 °C.
On to `CC1Cc2c(n(-c3ccc(Cl)c(Cl)c3)c3ncccc3c2=O)O1` (centres undefined), for which the melting point lay within 218 to 220 °C.
The figure for `CC(C)OC(=O)c1ccc(OCC(=NO)c2ccc3c(c2)C(C)(C)CCC3(C)C)cc1O` is 130 °C.
The figure for `CCS(=O)(=O)c1cc2c(c(C(=O)Cl)c1)OCCO2` is 146 to 147 °C; for `O=C(c1ccc(N2CCOCC2)cc1)c1ccc([N+](=O)[O-])cc1` it is 173 to 175 °C.
Then `CSCC[C@@H](NC(=O)[C@H](Cc1ccc(O)cc1)NC(=O)OC(C)(C)C)C(=O)NCC(=O)Oc1c(Cl)c(Cl)c(Cl)c(Cl)c1Cl`, with 175 to 176 °C; and `COc1ccccc1N(CC(=O)N(C)c1ccccc1)C(=O)CN1C(=O)c2ccccc2C1=O`, with 199 °C.
Take `CC(C)OC(=O)NCc1cccc(-c2ccccc2)c1`: the melting point fell in the range of 61 to 64 °C.
The figure for `COc1cc(CO)c2oc(-c3ccc(OC)c(F)c3)cc2c1` is 128 to 130 °C.
The figure for `CC(C)Cc1ccc(CCCN(C)[C@H]2CC[C@H](c3ccc4[nH]c(=O)oc4c3)CC2)cc1` is 162 to 165 °C; for `O=C1N(N2CCCCC2)c2ccccc2C1(Cc1ccccc1)c1ccccc1` (centres undefined) it is 114 to 116 °C.
The figure for `Cc1nc[nH]c1CSCCNc1cc(=O)cc[nH]1` is 208 to 210 °C; for `Oc1ccc(OCc2ccccc2)c(Cl)c1` it is 49 to 51 °C; for `O=c1[nH]c2ccc(C3=NOC(CN4CCC(S(=O)c5ccc(F)cc5)CC4)C3)cc2o1` (centres undefined) it is 170 to 178 °C.
Regarding `CON(C)C(=O)CCCCCCNC(=O)c1cn2c3c(cccc13)CCC2`, the melting point lay within 61 to 62 °C.
Then `Nc1cccc(NCCCN2CCOCC2)c1`, with 61 to 65 °C; and `Cc1ccc(NS(=O)(=O)c2ccc(N3CCNC3=O)cc2)cc1C`, with 206 to 208 °C.
Then `CCc1cccc(C)c1CNc1nc(C(=O)O)cc2c1nc(C)n2C`, with 233 to 236 °C; and `CCc1c(OC)nc2nc(C#N)cn2c1C`, with 166 to 168 °C; and `CCOC(=O)C(CCCN(C)CCc1ccc(OC)c(OC)c1)(C(=O)OCC)c1ccc(OC)c(OC)c1`, with 101 to 104 °C.
The figure for `CC(=O)C(=Cc1ccc(S(C)(=O)=O)c(Br)c1)C(C)=O` is 135 to 139 °C; for `O=C(NCCSCc1cccc([N+](=O)[O-])c1)c1c(Cl)cccc1Cl` it is 76 to 78 °C.

Values taken from a melting point compilation (Tetko et al.; mined from patent text by program, amines drawn as free bases though some values may be those of a salt).
